In PMC6417734 (PLoS ONE, 2019):
“And” between values parts separate entries of the source, which are not always exact repeats. Equal entries are not always repeated. Where two headings read alike, the source gives them in different places.

Assays:
[1] = Oral pharmacokinetic study in rats (plasma, UPHILIC-MS/MS, non-compartmental analysis); type: in vivo, wistar albino rats; details: for thalf: in h (unit assumed); for Kel: in h-1 (unit assumed); for AUClast / AUCtot: in ng·h/mL
Experimental: Six healthy rats weighing between 180–220 g were received and maintained under standard laboratory conditions before the experiments. […] Blood samples (approx.0.5 ml) were collected at 0, 0.33, 0.66, 1, 2, 3, 5, 8, 12 and 24 h in lithium heparinized tubes after dosing. Plasma was separated by centrifugation for 8 min at 4000 rpm and stored at −80 °C till further analysis.
The non-compartmental model was used to calculate the pharmacokinetic parameters using WinNonlin software (Pharsight Co., Mountain View, CA, USA). The maximum plasma concentration (Cmax), time to achieve this (Tmax), area under curve zero to last and infinity (AUC0-24; AUC0-∞), half-life (T½), elimination rate constant (Kel) and mean residence time were measured. Statistical parameters like mean, standard deviation and % RSD were calculated by using MS-Excel 2013 (Microsoft).

[2] = Stability in spiked rat plasma under different storage conditions; type: physicochemical; details: for stability in spiked rat plasma, short term and long term storage: LQC and HQC, room temperature and -80 °C for 30 days, acceptance within ±15%; for stability of processed plasma samples in autosampler and after freeze-thaw cycles: autosampler for 24 h, three freeze-thaw cycles; for Processed samples (24 h) Accuracy (%): processed rat plasma samples, autosampler at 10 °C; for long term (1 month) Accuracy (%) / Short term (8 h) Accuracy (%) / Freeze/Thaw (3 cycle) Accuracy (%): spiked rat plasma; for long term (1 month) Accuracy (%): -80 °C for 30 days; for Short term (8 h) Accuracy (%): room temperature; for Freeze/Thaw (3 cycle) Accuracy (%): three cycle from -80 °C to room temperature
Experimental: The short-term (at room temperature for 8 h); post preparation (in autosampler at 10 °C for 24 h), freeze-thaw (three cycle from ─80 °C to room temperature) and long-term (─80 °C for 30 days) stabilities were determined. All stabilities results were measured against freshly spiked CCs and acceptance were limited to be within ±15%.

SUA levels = details: ALP dose of 300 mg/day; ref [10]–[12]; cited from earlier work
[3] = Mean of six rats (supplement), oral ALP 20 mg/kg and LES 15 mg/kg
[4] = Wistar albino, rat, plasma, po, rat plasma, oral co-administration of ALP 20 mg/kg and LES 15 mg/kg, mean ± SD, six rats, read-out: Cmax
[5] = Wistar albino, rat, plasma, po, rat plasma, oral co-administration of ALP 20 mg/kg and LES 15 mg/kg, mean ± SD, read-out: AUC0-24
[6] = Wistar albino, rat, plasma, po, rat plasma, oral co-administration of ALP 20 mg/kg and LES 15 mg/kg, mean ± SD, read-out: MRT
[7] = Wistar albino, rat, plasma, po, rat plasma, oral co-administration of ALP 20 mg/kg and LES 15 mg/kg, six rats, read-out: Tmax
[8] = individual animal (rats R1-R6), oral ALP 20 mg/kg and LES 15 mg/kg, in h
[9] = individual animal (rats R1-R6), oral ALP 20 mg/kg and LES 15 mg/kg
[10] = individual animal (rats R1-R6), oral ALP 20 mg/kg and LES 15 mg/kg, in ng/mL
[11] = HQC nominal value (ALP 7000, OXP 10000, LES 8000 ng/mL)
[12] = LQC nominal value (ALP 70, OXP 100, LES 80 ng/mL)
[13] = Wistar albino, rat, plasma, po, 20 mg/kg, Mean line of six rats (supplement), oral ALP 20 mg/kg and LES 15 mg/kg, read-out: Tmax
[14] = Wistar albino, rat, plasma, po, 20 mg/kg, Mean of six rats (supplement), oral ALP 20 mg/kg and LES 15 mg/kg
[15] = Wistar albino, rat, plasma, po, 20 mg/kg, Mean of six rats (supplement), oral ALP 20 mg/kg and LES 15 mg/kg, read-out: AUClast
[16] = Wistar albino, rat, plasma, po, 20 mg/kg, Mean of six rats (supplement), oral ALP 20 mg/kg and LES 15 mg/kg, read-out: Cmax
[17] = Wistar albino, rat, plasma, po, 20 mg/kg, Mean of six rats (supplement), oral ALP 20 mg/kg and LES 15 mg/kg, read-out: MRT
[18] = Wistar albino, rat, plasma, po, 20 mg/kg, individual animal (rats R1-R6), oral ALP 20 mg/kg and LES 15 mg/kg
[19] = Wistar albino, rat, plasma, po, 20 mg/kg, individual animal (rats R1-R6), oral ALP 20 mg/kg and LES 15 mg/kg, read-out: AUClast
[20] = Wistar albino, rat, plasma, po, 20 mg/kg, individual animal (rats R1-R6), oral ALP 20 mg/kg and LES 15 mg/kg, read-out: Cmax
[21] = Wistar albino, rat, plasma, po, 20 mg/kg, individual animal (rats R1-R6), oral ALP 20 mg/kg and LES 15 mg/kg, read-out: MRT
[22] = Wistar albino, rat, plasma, po, 20 mg/kg, rats, oral ALP 20 mg/kg, read-out: Tmax

Compound | Kel [1, 3] | Cmax [1, 4] [ng/mL] | AUC(0-t) [1, 5] [ng·h/mL] | MRT [1, 6] [h] | Tmax [1, 7] [h] | MRT [1, 8] | Tmax [1, 8] | Cmax [1, 10] | AUClast [1, 9] | AUCtot [1, 9] | stability in spiked rat plasma, short term and long term storage [2] | stability of processed plasma samples in autosampler and after freeze-thaw cycles [2] | Processed samples (24 h) Accuracy (%) [2, 11] [%] | Processed samples (24 h) Accuracy (%) [2, 12] [%] | long term (1 month) Accuracy (%) [2, 11] [%] | Short term (8 h) Accuracy (%) [2, 11] [%] | Freeze/Thaw (3 cycle) Accuracy (%) [2, 11] [%] | long term (1 month) Accuracy (%) [2, 12] [%] | Short term (8 h) Accuracy (%) [2, 12] [%] | Freeze/Thaw (3 cycle) Accuracy (%) [2, 12] [%] | also measured
O=C(O)CSc1nnc(Br)n1-c1ccc(C2CC2)c2ccccc12 [LES, Lesinurad] | 0.09441 | 8270 ± 191 | 65910 ± 139 | 12.4 ± 4.51 | 1.5 | 20.1145 and 8.709 and 12.6844 and 8.471 and 9.848 and 14.9899 | 1 and 3 and 2 and 5 and 0.66 | 5494.01 and 8320.88 and 6878.96 and 11031.4 and 8808.81 and 9091.69 | 64836.4 and 61847.4 and 85561.6 and 56410.3 and 78552.6 | 68738 and 73776.1 and 90181.7 and 60657.3 and 99665.6 | acceptable limits | stable | 97.01 | 112.54 | 88.59 | 95.12 | 90.13 | 89.81 | 91.26 | 94.8 | thalf [1, 3]: 8.497; Tmax ([1]; Wistar albino, rat, plasma, po, 15 mg/kg, Mean line of six rats (supplement), oral ALP 20 mg/kg and LES 15 mg/kg, read-out: Tmax): 1.5 h; AUC ([1]; Wistar albino, rat, plasma, po, 15 mg/kg, Mean of six rats (supplement), oral ALP 20 mg/kg and LES 15 mg/kg): 77100 ng·h/mL; AUC(0-t) ([1]; Wistar albino, rat, plasma, po, 15 mg/kg, Mean of six rats (supplement), oral ALP 20 mg/kg and LES 15 mg/kg, read-out: AUClast): 65900 ng·h/mL; Cmax ([1]; Wistar albino, rat, plasma, po, 15 mg/kg, Mean of six rats (supplement), oral ALP 20 mg/kg and LES 15 mg/kg, read-out: Cmax): 8270 ng/mL; MRT ([1]; Wistar albino, rat, plasma, po, 15 mg/kg, Mean of six rats (supplement), oral ALP 20 mg/kg and LES 15 mg/kg, read-out: MRT): 12.5 h; AUC ([1]; Wistar albino, rat, plasma, po, 15 mg/kg, individual animal (rats R1-R6), oral ALP 20 mg/kg and LES 15 mg/kg): 69800 ng·h/mL; AUC(0-t) ([1]; Wistar albino, rat, plasma, po, 15 mg/kg, individual animal (rats R1-R6), oral ALP 20 mg/kg and LES 15 mg/kg, read-out: AUClast): 48200 ng·h/mL; thalf [1, 9]: 13.589 and 5.574 and 9.1146 and 5.126 and 5.707 and 11.8685; Kel [1, 9]: 0.05101 and 0.1244 and 0.07605 and 0.1352 and 0.1214 and 0.0584; ratios of AUC (AUC0-24/ AUC0-∞) ([1]; rats, oral ALP 20 mg/kg and LES 15 mg/kg): ≥ 85%
O=c1[nH]c(=O)c2c[nH]nc2[nH]1 [OXP, oxypurinol] | 0.1191 | 7500 ± 156 | 44800 ± 373 | 7.58 ± 1.52 | 2 | 6.956 and 5.837 and 6.059 and 8.731 and 9.5786 | 3 and 0.66 and 1 | 7192.39 and 10535.3 and 7573.56 and 6585.93 and 6831.19 | 49418.6 and 48647.7 and 44044.7 and 42639.7 and 44576.2 | 50759.5 and 50350.9 and 45393.1 and 45993.3 and 50026.1 | acceptable limits | stable | 102.65 | 104.72 | 91.04 | 95.12 | 92.67 | 92.43 | 96.85 | 102.55 | Tmax [1, 13]: 2 h; AUC [1, 14]: 47400 ng·h/mL; AUC(0-t) [1, 15]: 44800 ng·h/mL; Cmax [1, 16]: 7500 ng/mL; MRT [1, 17]: 7.58 h; AUC [1, 18]: 41900 ng·h/mL; AUC(0-t) [1, 19]: 39500 ng·h/mL; Cmax [1, 20]: 6250 ng/mL; MRT [1, 21]: 8.33 h; Tmax [1, 22]: 2 h
Oc1ncnc2[nH]ncc12 [ALP, Allopurinol] | 0.5391 | 2030 ± 509 | 3510 ± 571 | 1.98 ± 0.32 | 0.66 | 1.607 and 2.233 and 2.477 and 1.777 and 1.801 |  | 1667.45 and 2378.66 and 2694.26 and 2321.62 and 1731.2 | 2635.21 and 3641.95 and 4404.97 and 3470.35 and 3598.67 | 2743.88 and 3774.36 and 4653.35 and 3656.48 and 3742.26 | acceptable limits | stable | 99.34 | 96.54 | 88.71 | 90.84 | 100.54 | 87.23 | 93.08 | 108.60 | patients who do not achieve sustained reductions in SUA levels (< 6 mg/dL) (SUA levels): > 50%; Tmax [1, 13]: 0.66 h; AUC [1, 14]: 3660 ng·h/mL; AUC(0-t) [1, 15]: 3510 ng·h/mL; Cmax [1, 16]: 2030 ng/mL; MRT [1, 17]: 1.99 h; AUC [1, 18]: 3390 ng·h/mL; AUC(0-t) [1, 19]: 3320 ng·h/mL; Cmax [1, 20]: 1380 ng/mL; MRT [1, 21]: 2.04 h; Tmax ([1]; Wistar albino, rat, plasma, po, 20 mg/kg, individual animal (rats R1-R6), oral ALP 20 mg/kg and LES 15 mg/kg, read-out: Tmax): 0.33 h; Tmax [1, 22]: 0.66 h; Kel [1, 9]: 0.3461; detectability in plasma after administration ([1]; rats, post administration of 20 mg/kg of ALP): undetectable after 8 h
